Among the data in PubChem BioAssay (NCI) are TGI and GI50 values, retold here.

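How tested: cells in 96-well plates exposed to compound for 48 hours at five concentrations. GI50 = concentration required for 50% inhibition of growth. TGI marks complete inhibition of growth.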

The test system of the first assay is HOP-62 NSCLC. Briefly: inhibition of tumour cell growth, NCI panel, 48 h.
With `O=c1[nH]c(Nc2nc3ccccc3[nH]2)nc(O)c1-c1ccccc1`, the TGI was > 100 µM.
The same measure, in the same setting: with `CC(=O)OC1COC(n2ccc3cc(Br)c([N+](=O)[O-])cc32)C(OC(C)=O)C1OC(C)=O` (stereo not given) the figure was 92.2 µM; with `CCOC(=O)NC(=O)c1cn(CCCO)c(=O)[nH]c1=O`, > 100 µM.
In the case of `CN(C)c1nc(=Nc2ccc(N=c3nc(N(C)C)ss3)cc2)ss1`, the TGI was > 100 µM.
Regarding `CCc1cc(Cc2cc(CC)c(NC(=O)C(=O)Cc3ccccn3)c(CC)c2Cl)c(Cl)c(CC)c1NC(=O)C(=O)Cc1ccccn1`, the TGI is > 100 µM.
As for `O=C1c2cc3c(cc2-c2c1c1ccc(F)cc1c(=O)n2CCCNCCO)OCO3`, the GI50 is 0.0366 µM and the TGI amounted to 0.496 µM.
For the molecule `C[Si](C)(C)C1(Sc2ccccc2)SCCCS1`, the TGI was 76.4 µM.
Molecule `c1ccc(COc2cccc3ccc[n+](Cc4ccccc4)c23)cc1` displayed a TGI of 50.8 µM.
Same read-out and setting: with `O=S1(=O)OCCOS(=O)(=O)C1Br` the figure was > 100 µM; with `CCOC(=O)C(=C=C=C(c1ccccc1)c1ccccc1)C(=O)OCC`, 45.2 µM; with `CC1=CC(O)(c2ccc(-c3ccccc3Cl)cc2)OC1=O` (stereo not given), > 100 µM.
As to `OCCCCCNCc1cc2cc3c(cc2c2cc(OCc4ccccc4)ccc12)OCO3`, the GI50 was 1.72 µM and the TGI worked out at 3.23 µM.
As to `C/C(=N\NC(=S)NC(CCC(=O)O)C(=O)O)c1ccccn1` (stereo not given), the TGI is > 100 µM.
For the molecule `C#CC1(O)CCC2C3CCc4cc(Oc5nc(F)nc(-c6c7ccccc7c7sc8ccccc8n67)n5)ccc4C3CC[C@@]21C` (stereo not given in full), the TGI was > 100 µM.
On to `Cc1ccc(NC(=O)c2cc3cc(N=Nc4ccccc4C(=O)O)ccc3oc2=O)cc1`, for which the TGI was > 100 µM.
Turning to `COc1ccc(S(=O)(=O)NNS(C)(=O)=O)cc1`, the TGI was > 100 µM.
For `O=C(/C=C\c1ccc(Cl)c(Cl)c1)c1ccc(Cl)cc1Cl`, the GI50 is > 100 µM and the TGI was > 100 µM.
In the case of `CCN1c2ccccc2C(C(SC)S(=O)(=O)c2ccc(C)cc2)c2c1[nH]c(=O)n(C)c2=O` (stereo not given), the TGI was > 100 µM.
Consider `COC(OC)C(C)CC(=O)N(C)C` (stereo not given), for which the TGI was > 100 µM.

In the next assay the test system is K-562 leukemia. Description: inhibition of tumour cell growth, NCI panel, 48 h.
As for `O=c1cc(-c2ccccc2)oc2cc(OCCCOc3ccc4c(=O)cc(-c5ccccc5)oc4c3)ccc12`, the TGI is > 100 µM.
Take `Clc1ccc(C(c2ccc(Cl)cc2)c2ccccn2)cc1`: the TGI turned out to be 55.6 µM.
Same read-out and setting: with `CC(C)=Cc1cc(C(=O)Nc2ccc(Cl)c(Cl)c2)nc(N)n1` the figure was > 100 µM.
Same read-out and setting: with `Cn1cnc([N+](=O)[O-])c1Sc1nc2ccccc2[nH]1` the figure was > 100 µM.
Consider `COc1ccc([C@H]2[C@@H](F)C(=O)N2c2cc(OC)c(OC)c(OC)c2)cc1F`, for which the GI50 was 0.0383 µM and the TGI was > 100 µM.
`CCCCCCN(CCCCCC)C(=O)Cc1c2n(c3ccccc13)Cc1ccccc1-2`: the TGI is > 100 µM.
On the same count and under the same terms, the value for `CCCCCCCCC/C=C1\CCC(CN2CCOCC2)C1=O` (stereo not given) was 15.6 µM; that for `O=c1[nH]c(Nc2nc3ccccc3[nH]2)nc(O)c1-c1ccccc1` was > 100 µM.
With `CC(=O)OC1COC(n2ccc3cc(Br)c([N+](=O)[O-])cc32)C(OC(C)=O)C1OC(C)=O` (stereo not given), the TGI was > 100 µM.
On to `CC(=O)[C@@]12O[C@@H]1CC1C3CCC4=CC(O)CCC4(C)C3CCC12C` (stereo not given in full), for which the GI50 is 55.5 µM and the TGI was > 100 µM.
For the molecule `CCOC(=O)NC(=O)c1cn(CCCO)c(=O)[nH]c1=O`, the TGI is > 100 µM.
Still for that read-out and setting: the value for `CN(C)c1nc(=Nc2ccc(N=c3nc(N(C)C)ss3)cc2)ss1` was 30.5 µM.
For the molecule `CCc1cc(Cc2cc(CC)c(NC(=O)C(=O)Cc3ccccn3)c(CC)c2Cl)c(Cl)c(CC)c1NC(=O)C(=O)Cc1ccccn1`, the TGI was > 100 µM.
As to `O=C1c2cc3c(cc2-c2c1c1ccc(F)cc1c(=O)n2CCCNCCO)OCO3`, the GI50 is 0.0373 µM and the TGI came out at 1.36 µM.
Turning to `C[Si](C)(C)C1(Sc2ccccc2)SCCCS1`, the TGI was > 100 µM.
`Cc1cc(-c2ccc3nc(C4CCOCC4)n(CCOC(F)(F)F)c3c2)cn(C)c1=O`: the GI50 was 0.507 µM.
As for `c1ccc(COc2cccc3ccc[n+](Cc4ccccc4)c23)cc1`, the TGI is > 100 µM.
With `O=S1(=O)OCCOS(=O)(=O)C1Br`, the TGI was > 100 µM.
On the same count and under the same terms, the value for `CCOC(=O)C(=C=C=C(c1ccccc1)c1ccccc1)C(=O)OCC` was 28.5 µM; that for `CC1=CC(O)(c2ccc(-c3ccccc3Cl)cc2)OC1=O` (stereo not given) was > 100 µM.
As to `OCCCCCNCc1cc2cc3c(cc2c2cc(OCc4ccccc4)ccc12)OCO3`, the GI50 is 1.68 µM and the TGI worked out at 4.11 µM.
`C/C(=N\NC(=S)NC(CCC(=O)O)C(=O)O)c1ccccn1` (stereo not given): the TGI is > 100 µM.
The same measure, in the same setting: the value for `C#CC1(O)CCC2C3CCc4cc(Oc5nc(F)nc(-c6c7ccccc7c7sc8ccccc8n67)n5)ccc4C3CC[C@@]21C` (stereo not given in full) was > 100 µM; that for `Cc1ccc(NC(=O)c2cc3cc(N=Nc4ccccc4C(=O)O)ccc3oc2=O)cc1` was > 100 µM.
Still for that read-out and setting: the value for `COc1ccc(S(=O)(=O)NNS(C)(=O)=O)cc1` was > 100 µM.
As to `O=C(/C=C\c1ccc(Cl)c(Cl)c1)c1ccc(Cl)cc1Cl`, the GI50 is 1.61 µM and the TGI was determined as 26 µM.
Regarding `CCN1c2ccccc2C(C(SC)S(=O)(=O)c2ccc(C)cc2)c2c1[nH]c(=O)n(C)c2=O` (stereo not given), the TGI is > 100 µM.
Take `COC(OC)C(C)CC(=O)N(C)C` (stereo not given): the TGI was > 100 µM.

A further assay concerns TK-10 renal. Briefly: inhibition of tumour cell growth, NCI panel, 48 h.
As for `O=c1cc(-c2ccccc2)oc2cc(OCCCOc3ccc4c(=O)cc(-c5ccccc5)oc4c3)ccc12`, the TGI was > 100 µM.
On the same count and under the same terms, with `Clc1ccc(C(c2ccc(Cl)cc2)c2ccccn2)cc1` the figure was 45.3 µM.
Take `CC(C)=Cc1cc(C(=O)Nc2ccc(Cl)c(Cl)c2)nc(N)n1`: the TGI is > 100 µM.
The molecule `Cn1cnc([N+](=O)[O-])c1Sc1nc2ccccc2[nH]1` returned a TGI of 40.8 µM.
Take `COc1ccc([C@H]2[C@@H](F)C(=O)N2c2cc(OC)c(OC)c(OC)c2)cc1F`: the GI50 is 38.6 µM and the TGI is > 100 µM.
On to `CCCCCCN(CCCCCC)C(=O)Cc1c2n(c3ccccc13)Cc1ccccc1-2`, for which the TGI is > 100 µM.
On the same count and under the same terms, the value for `CCCCCCCCC/C=C1\CCC(CN2CCOCC2)C1=O` (stereo not given) was 5.56 µM.
As to `O=c1[nH]c(Nc2nc3ccccc3[nH]2)nc(O)c1-c1ccccc1`, the TGI was > 100 µM.
On the same count and under the same terms, the value for `CC(=O)OC1COC(n2ccc3cc(Br)c([N+](=O)[O-])cc32)C(OC(C)=O)C1OC(C)=O` (stereo not given) was 81.7 µM.
